Reference: patent publication US11655235B2, “Pyrrolidine and piperidine compounds” (YUHAN CORPORATION, priority 2019, dated 2023)

Experiments:
Type in all cases: biochemical
[1] = biological target: T1, Recombinant human FAP (Homo sapiens, UniProt Q12884); assay: FAP inhibition, fluorogenic substrate Z-Gly-Pro-AMC; settings: recombinant human FAP, substrate Z-Gly-Pro-AMC
T1 construct: purchased R&D systems
T1 sequence (Q12884 1-760): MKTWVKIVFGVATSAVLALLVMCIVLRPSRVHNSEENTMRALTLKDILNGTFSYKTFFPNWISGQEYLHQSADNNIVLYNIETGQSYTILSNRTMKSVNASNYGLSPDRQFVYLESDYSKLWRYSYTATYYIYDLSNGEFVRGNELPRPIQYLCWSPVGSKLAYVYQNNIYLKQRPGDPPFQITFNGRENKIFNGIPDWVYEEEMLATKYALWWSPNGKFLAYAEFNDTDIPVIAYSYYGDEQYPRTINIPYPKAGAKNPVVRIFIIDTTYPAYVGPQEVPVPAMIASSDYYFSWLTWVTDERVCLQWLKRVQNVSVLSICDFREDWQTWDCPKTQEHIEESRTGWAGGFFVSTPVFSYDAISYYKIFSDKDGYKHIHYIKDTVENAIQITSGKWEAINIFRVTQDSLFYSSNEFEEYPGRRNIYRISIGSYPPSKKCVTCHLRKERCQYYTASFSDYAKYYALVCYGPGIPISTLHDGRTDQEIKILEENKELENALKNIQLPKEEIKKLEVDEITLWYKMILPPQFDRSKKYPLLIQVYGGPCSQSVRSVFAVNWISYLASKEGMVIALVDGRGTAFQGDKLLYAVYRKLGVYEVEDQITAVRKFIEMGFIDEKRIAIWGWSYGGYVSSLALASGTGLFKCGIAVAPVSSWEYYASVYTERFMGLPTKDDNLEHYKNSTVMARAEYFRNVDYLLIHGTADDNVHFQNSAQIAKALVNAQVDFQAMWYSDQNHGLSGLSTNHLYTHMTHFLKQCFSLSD
Summary of the method: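 Eight-point compound dilutions (≤0.1% DMSO) were incubated at 25° C with 10 ng recombinant human FAP in Tris pH 7.5/1 M NaCl/BSA buffer and Z-Gly-Pro-AMC. Inhibition was taken as % drop in fluorescence rate (380/460 nm) against uninhibited control; IC50 came from a four-parameter logistic fit.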

[2] = biological target: T2, recombinant human DPP7 (Homo sapiens, UniProt Q9UHL4); assay: DPP7 inhibition, fluorogenic substrate Lys-Pro-AMC; settings: recombinant human DPP7
T2 construct: purchased R&D Systems
Summary of the method: (§1)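 Inhibitors are titrated in an 8-point series into the enzyme's assay buffer (DMSO no more than 0.5%). Substrate cleavage at 25 °C is followed by fluorescence, excitation 380 nm and emission 460 nm. IC50 values come from a four-variable logistic model.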

[3] = biological target: T3, recombinant human DPP8 (Homo sapiens, UniProt Q6V1X1); assay: DPP8 inhibition, fluorogenic substrate Z-Ala-Pro-AMC; settings: recombinant human DPP8
T3 construct: purchased PBS Bioscience
Summary of the method: as §1

[4] = biological target: T4, recombinant human DPP9 (Homo sapiens, UniProt Q86TI2); assay: DPP9 inhibition, fluorogenic substrate H-Gly-Pro-AMC; settings: recombinant human DPP9
T4 construct: purchased R&D Systems
Summary of the method: as §1

[5] = biological target: T5, recombinant human PREP (Homo sapiens, UniProt P48147); assay: PREP inhibition, fluorogenic substrate Z-Gly-Pro-AMC; settings: Inhibitory Activity (IC50, nM) PREP, recombinant human PREP
T5 construct: purchased R&D System
T5 sequence (P48147 1-710): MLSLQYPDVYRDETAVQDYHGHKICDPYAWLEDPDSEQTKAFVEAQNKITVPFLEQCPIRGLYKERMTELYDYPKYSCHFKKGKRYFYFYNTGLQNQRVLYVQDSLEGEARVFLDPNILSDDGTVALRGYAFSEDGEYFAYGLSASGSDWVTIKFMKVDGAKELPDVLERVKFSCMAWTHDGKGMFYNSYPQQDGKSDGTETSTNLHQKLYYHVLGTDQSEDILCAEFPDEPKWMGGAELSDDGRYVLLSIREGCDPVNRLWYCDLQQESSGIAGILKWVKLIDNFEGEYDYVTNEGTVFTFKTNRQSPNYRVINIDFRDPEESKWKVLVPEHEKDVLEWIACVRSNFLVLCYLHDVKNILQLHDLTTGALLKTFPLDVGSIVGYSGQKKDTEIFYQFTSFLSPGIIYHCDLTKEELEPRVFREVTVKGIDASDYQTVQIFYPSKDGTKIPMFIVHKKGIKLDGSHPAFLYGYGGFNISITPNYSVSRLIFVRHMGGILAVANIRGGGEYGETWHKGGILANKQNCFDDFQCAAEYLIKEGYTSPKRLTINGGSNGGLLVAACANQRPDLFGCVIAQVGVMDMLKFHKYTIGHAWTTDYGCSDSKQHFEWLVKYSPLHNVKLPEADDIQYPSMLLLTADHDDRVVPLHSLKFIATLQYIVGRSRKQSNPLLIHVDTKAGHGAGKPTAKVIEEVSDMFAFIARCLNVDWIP
Summary of the method: as §1

[6] = biological target: DPP4 (Homo sapiens, UniProt P27487); assay: DPP4 inhibition, fluorogenic substrate H-Gly-Pro-AMC; design: purchased R&D Systems; settings: recombinant human DPP4
Sequence of DPP4 (P27487 whole entry): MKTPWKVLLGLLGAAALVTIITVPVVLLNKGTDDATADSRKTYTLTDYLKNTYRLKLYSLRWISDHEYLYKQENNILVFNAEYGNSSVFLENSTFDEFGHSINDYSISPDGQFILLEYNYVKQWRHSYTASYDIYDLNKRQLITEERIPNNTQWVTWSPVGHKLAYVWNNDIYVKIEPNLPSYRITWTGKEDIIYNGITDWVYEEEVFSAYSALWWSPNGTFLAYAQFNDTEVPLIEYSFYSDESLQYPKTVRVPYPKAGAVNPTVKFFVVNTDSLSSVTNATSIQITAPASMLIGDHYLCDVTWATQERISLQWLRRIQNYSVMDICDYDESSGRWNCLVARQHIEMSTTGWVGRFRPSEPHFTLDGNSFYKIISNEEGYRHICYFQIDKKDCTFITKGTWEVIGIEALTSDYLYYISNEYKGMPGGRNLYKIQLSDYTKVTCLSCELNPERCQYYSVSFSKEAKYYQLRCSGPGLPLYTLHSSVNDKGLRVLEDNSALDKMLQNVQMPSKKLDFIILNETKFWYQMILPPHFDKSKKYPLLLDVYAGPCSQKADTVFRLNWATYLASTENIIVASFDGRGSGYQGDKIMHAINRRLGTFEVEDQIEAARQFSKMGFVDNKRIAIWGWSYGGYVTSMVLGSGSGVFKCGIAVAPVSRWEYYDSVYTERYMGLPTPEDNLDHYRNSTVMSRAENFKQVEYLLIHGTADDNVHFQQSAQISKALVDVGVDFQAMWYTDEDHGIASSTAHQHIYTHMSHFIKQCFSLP

T4 sequence (Q86TI2 whole entry): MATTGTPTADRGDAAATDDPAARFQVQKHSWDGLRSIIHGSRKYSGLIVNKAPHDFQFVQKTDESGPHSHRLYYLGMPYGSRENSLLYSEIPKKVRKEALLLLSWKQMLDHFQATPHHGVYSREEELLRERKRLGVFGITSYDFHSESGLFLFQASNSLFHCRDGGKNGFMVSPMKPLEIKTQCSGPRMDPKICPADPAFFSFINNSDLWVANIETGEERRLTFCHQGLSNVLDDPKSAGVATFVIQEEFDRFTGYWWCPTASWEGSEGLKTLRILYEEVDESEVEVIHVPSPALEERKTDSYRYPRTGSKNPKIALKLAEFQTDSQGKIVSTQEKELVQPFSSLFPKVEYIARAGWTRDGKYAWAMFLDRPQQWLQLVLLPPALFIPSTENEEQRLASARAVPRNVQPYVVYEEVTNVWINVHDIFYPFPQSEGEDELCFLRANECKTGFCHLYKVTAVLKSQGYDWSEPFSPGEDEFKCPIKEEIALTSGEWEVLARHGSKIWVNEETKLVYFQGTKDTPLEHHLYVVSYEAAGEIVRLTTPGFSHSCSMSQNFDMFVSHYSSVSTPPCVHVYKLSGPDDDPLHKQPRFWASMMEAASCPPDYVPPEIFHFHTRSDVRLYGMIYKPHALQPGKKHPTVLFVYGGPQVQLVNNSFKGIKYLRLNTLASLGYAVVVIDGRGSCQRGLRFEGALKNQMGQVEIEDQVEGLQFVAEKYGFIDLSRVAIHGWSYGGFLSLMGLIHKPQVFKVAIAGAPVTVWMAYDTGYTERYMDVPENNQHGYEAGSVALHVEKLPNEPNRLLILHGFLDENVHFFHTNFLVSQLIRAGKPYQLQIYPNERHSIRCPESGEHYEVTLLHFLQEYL
T3 sequence (Q6V1X1 whole entry): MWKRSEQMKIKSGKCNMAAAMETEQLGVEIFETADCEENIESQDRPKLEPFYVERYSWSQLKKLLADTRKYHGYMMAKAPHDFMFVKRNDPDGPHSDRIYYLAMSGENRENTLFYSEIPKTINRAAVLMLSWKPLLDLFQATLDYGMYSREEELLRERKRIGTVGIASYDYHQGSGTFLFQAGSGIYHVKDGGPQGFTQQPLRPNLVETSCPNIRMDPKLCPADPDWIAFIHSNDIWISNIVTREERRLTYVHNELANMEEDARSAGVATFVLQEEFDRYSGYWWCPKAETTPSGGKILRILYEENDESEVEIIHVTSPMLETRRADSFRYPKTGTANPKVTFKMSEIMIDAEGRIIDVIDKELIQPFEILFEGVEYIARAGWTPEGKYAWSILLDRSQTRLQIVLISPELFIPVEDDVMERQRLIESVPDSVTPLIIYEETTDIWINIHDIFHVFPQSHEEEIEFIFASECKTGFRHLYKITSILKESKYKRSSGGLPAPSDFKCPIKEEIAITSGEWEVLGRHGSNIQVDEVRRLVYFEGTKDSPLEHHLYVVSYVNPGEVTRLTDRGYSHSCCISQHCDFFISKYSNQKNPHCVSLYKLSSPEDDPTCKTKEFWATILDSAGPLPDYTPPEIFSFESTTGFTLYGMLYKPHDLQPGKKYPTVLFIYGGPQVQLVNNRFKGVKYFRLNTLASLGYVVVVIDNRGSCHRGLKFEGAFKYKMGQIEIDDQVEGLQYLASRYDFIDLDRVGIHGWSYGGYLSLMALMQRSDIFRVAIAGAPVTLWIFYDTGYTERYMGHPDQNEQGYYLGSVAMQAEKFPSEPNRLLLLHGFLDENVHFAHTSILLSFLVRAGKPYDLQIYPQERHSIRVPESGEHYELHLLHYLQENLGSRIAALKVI

Row | SMILES | IC50 [1] | IC50 [2] | IC50 [3] | IC50 [4] | IC50 [5] | IC50 [6]
1 | N#Cc1ccc2c(N[C@H]3CCN(CC(=O)N4CCC[C@H]4C#N)C3)cccc2n1 [Example 231, 5-[[(3S)-1-[2-oxo-2-[(2S)-2-cyanopyrrolidin-1-yl]ethyl]pyrrolidin-3-yl]amino]quinoline-2-carbonitrile] | 0.001 µM | 1.51 µM | 12.6 µM | 21.6 µM | 11500 nM | > 10 µM
2 | N#C[C@@H]1CCCN1C(=O)CN1CC[C@H](Nc2cccc3ncc(Cl)cc23)C1 [Example 235, (2S)-1-[2-[(3S)-3-[(3-chloro-5-quinolyl)amino]pyrrolidin-1-yl]acetyl]pyrrolidine-2-carbonitrile] | 0.0007 µM | 2.79 µM | 23.4 µM | 17.6 µM | 8460 nM | > 10 µM
3 | N#C[C@@H]1CCCN1C(=O)CN1CC[C@H](Nc2cc(F)cc3ncccc23)C1 [Example 236, (2S)-1-[2-[(3S)-3-[(7-fluoro-5-quinolyl)amino]pyrrolidin-1-yl]acetyl]pyrrolidine-2-carbonitrile] | 0.0015 µM | 3.47 µM | > 100 µM | 18.8 µM | 8900 nM | > 10 µM
4 | COc1cc(N[C@H]2CCN(CC(=O)N3CCC[C@H]3C#N)C2)c2cccnc2c1 [Example 237, (2S)-1-[2-[(3S)-3-[(7-methoxy-5-quinolyl)amino]pyrrolidin-1-yl]acetyl]pyrrolidine-2-carbonitrile] | 0.0015 µM | 0.746 µM | 22.6 µM | 34.6 µM | 6600 nM | 9.29 µM
5 | N#C[C@@H]1CCCN1C(=O)CN1CC[C@H](Nc2cc(C(F)(F)F)cc3ncccc23)C1 [Example 238, (2S)-1-[2-[(3S)-3-[[7-(trifluoromethyl)-5-quinolyl]amino]pyrrolidin-1-yl]acetyl]pyrrolidine-2-carbonitrile] | 0.0014 µM | 2.21 µM | > 100 µM | 29.3 µM | 3930 nM | > 10 µM
6 | Cc1ccc2ncccc2c1N[C@H]1CCN(CC(=O)N2CCC[C@H]2C#N)C1 [Example 239, (2S)-1-[2-[(3S)-3-[(6-methyl-5-quinolyl)amino]pyrrolidin-1-yl]acetyl]pyrrolidine-2-carbonitrile] | 0.006 µM | 7.28 µM | 74.3 µM | 43.9 µM | 9980 nM | > 10 µM
7 | N#C[C@@H]1CCCN1C(=O)CN1CC[C@H](Nc2c(F)ccc3ncccc23)C1 [Example 241, (2S)-1-[2-[(3S)-3-[(6-fluoro-5-quinolyl)amino]pyrrolidin-1-yl]acetyl]pyrrolidine-2-carbonitrile] | 0.0045 µM | 17 µM | 77.3 µM | 48 µM | 13000 nM | > 10 µM
8 | Cc1ccc(N[C@H]2CCN(CC(=O)N3CCC[C@H]3C#N)C2)c2cccnc12 [Example 242, (2S)-1-[2-[(3S)-3-[(8-methyl-5-quinolyl)amino]pyrrolidin-1-yl]acetyl]pyrrolidine-2-carbonitrile] | 0.0017 µM | 1.7 µM | 11 µM | 19.3 µM | 8440 nM | > 10 µM
9 | N#C[C@@H]1CCCN1C(=O)CN1CC[C@H](Nc2ccc(OC(F)(F)F)c3ncccc23)C1 [Example 246, (2S)-1-[2-[(3S)-3-[[8-(trifluoromethoxy)-5-quinolyl]amino]pyrrolidin-1-yl]acetyl]pyrrolidine-2-carbonitrile] | 0.0009 µM | 2.56 µM | > 30 µM | 21 µM | 11300 nM | > 10 µM
10 | N#C[C@@H]1CCCN1C(=O)CN1CC[C@H](Nc2ccc(OCc3ccccc3)c3ncccc23)C1 [Example 248, (2S)-1-[2-[(3S)-3-[(8-benzyloxy-5-quinolyl)amino]pyrrolidin-1-yl]acetyl]pyrrolidine-2-carbonitrile] | 0.0031 µM | 0.81 µM | 5.34 µM | 3.68 µM | 6160 nM | 7.07 µM
11 | N#C[C@@H]1C[C@H](F)CN1C(=O)CN1CC[C@H](Nc2cnc3ccccc3c2)C1 [Example 249, (2S,4S)-4-fluoro-1-[2-[(3S)-3-(3-quinolylamino)pyrrolidin-1-yl]acetyl]pyrrolidine-2-carbonitrile] | 0.006 µM | 0.489 µM | > 3 µM | 5.77 µM | 1050 nM | 1.45 µM
12 | N#C[C@@H]1C[C@H](F)CN1C(=O)CN1CC[C@H](Nc2ccc3ncccc3c2)C1 [Example 250, (2S,4S)-4-fluoro-1-[2-[(3S)-3-(6-quinolylamino)pyrrolidin-1-yl]acetyl]pyrrolidine-2-carbonitrile] | 0.0034 µM | 0.654 µM | 2.28 µM | 3.69 µM | 2160 nM | 0.964 µM
13 | N#Cc1ccc2c(N[C@H]3CCN(CC(=O)N4C[C@@H](F)C[C@H]4C#N)C3)cccc2n1 [Example 252, 5-[[(3S)-1-[2-oxo-2-[(2S,4S)-2-cyano-4-fluoro-pyrrolidin-1-yl]ethyl]pyrrolidin-3-yl]amino]quinoline-2-carbonitrile] | 0.0008 µM | 0.308 µM | 2.48 µM | 4.93 µM | 3320 nM | 1.63 µM
14 | N#Cc1cnc2cccc(N[C@H]3CCN(CC(=O)N4C[C@@H](F)C[C@H]4C#N)C3)c2c1 [Example 253, 5-[[(3S)-1-[2-oxo-2-[(2S,4S)-2-cyano-4-fluoro-pyrrolidin-1-yl]ethyl]pyrrolidin-3-yl]amino]quinoline-3-carbonitrile] | 0.0009 µM | 2.19 µM | 2.67 µM | 5.36 µM | 2220 nM | 2.31 µM
15 | COc1cnc2cccc(N[C@H]3CCN(CC(=O)N4C[C@@H](F)C[C@H]4C#N)C3)c2c1 [Example 254, (2S,4S)-4-fluoro-1-[2-[(3S)-3-[(3-methoxy-5-quinolyl)amino]pyrrolidin-1-yl]acetyl]pyrrolidine-2-carbonitrile] | 0.0021 µM | 1.4 µM | 12.2 µM | 13.1 µM | 275 nM | 4.71 µM
16 | N#C[C@@H]1C[C@H](F)CN1C(=O)CN1CC[C@H](Nc2cccc3ncc(Cl)cc23)C1 [Example 256, (2S,4S)-4-fluoro-1-[2-[(3S)-3-[(3-chloro-5-quinolyl)amino]pyrrolidin-1-yl]acetyl]pyrrolidine-2-carbonitrile] | 0.0008 µM | 1.79 µM | 3.35 µM | 6.96 µM | 603 nM | 1.88 µM
17 | COc1cc(N[C@H]2CCN(CC(=O)N3C[C@@H](F)C[C@H]3C#N)C2)c2cccnc2c1 [Example 257, (2S,4S)-4-fluoro-1-[2-[(3S)-3-[(7-methoxy-5-quinolyl)amino]pyrrolidin-1-yl]acetyl]pyrrolidine-2-carbonitrile] | 0.0009 µM | 0.289 µM | 4.54 µM | 6.56 µM | 1530 nM | 0.694 µM
